The source of these data is patent US11497740B2, “Use of Jumonji C demethylase inhibitors for the treatment and prevention of chemotherapy resistance and radioresistance in cancer” (THE BOARD OF REGENTS OF THE UNIVERSITY OF TEXAS SYSTEM, priority 2016, dated 2022).

Experiment [1] relates to radiosensitive (HCC1719, H23, H1650, H1395 and H2228) NSCLC cell lines. Description: Clonogenic survival with IR, radiosensitive NSCLC lines. It is filed as cell-based, Human. Here is the method: Cells were serially diluted to appropriate concentrations and plated into 60-mm dish in triplicate for 4 h. Then cells were treated with the indicated drugs, and irradiated 4 hours later with graded doses of radiation for concurrent treatment or irradiated and 4 hours later the drugs added for post-treatment. All cells were irradiated at room temperature in ambient air using a 137Cs source (Mark 1-68 irradiator, JL Shepherd & Associated). Surviving colonies were stained with crystal violet approximately 10 to 14 days later and colonies formed with more than 50 cells were counted. Clonogenic fraction of irradiated cells was normalized to the plating efficiency of unirradiated controls. The data are presented as the mean±SD. The curve S=e^−(αD+βD2) was fitted to the experimental data using a least square fit algorithm using the program Sigma Plot 11.0 (Systat Software, Inc.).

Another experiment concerns HCC4017 T5. Description: MTS cell viability assay, HCC4017 T5 resistant variant vs parental. As to conditions: HCC4017 T5 vs parental. It is filed as cell-based, human. Here is the method:
NSCLC lines were treated with paclitaxel+carboplatin combination, given in a ˜2:3 wt/wt ratio, to mirror the clinical dosage values of ˜225 mg/m2 and ˜330 mg/m2, paclitaxel and carboplatin respectively. Note that considering the molecular weights of the two drugs, this translates to approximately a 1 to 3.4 molar ratio. Drugs were given in cycles, following a drug on/drug off treatment scheme. Each cycle consisted of 4-5 days of drug treatment and drug-free culturing for about 1-2 weeks or more to allow the surviving cells to repopulate the plate. […] Untreated parental cells were simultaneously maintained at all times for comparison. Cell viability was assessed in 96-well plates using standard MTS assays (Promega). Treatment duration in MTS assays was 4 days. Drugs were tested in two- or four-fold serial dilutions, totaling 8 different drug concentrations, with 8 replicates per concentration. Response was validated in multiple replicate plates (n≥3).
Cell viability was assessed by standard MTS assays using Promega's CellTiter reagents. Eight drug concentrations given as two- or four-fold dilutions were tested for each chemotherapeutic agent. In addition, each experiment contained eight replicates per concentration and the entire assay was performed in multiple replicates (n≥3).
For orientation: Formazan colour is commonly taken as a measure of viable cells.

The test system of another experiment is RAD51. Description: RAD-51 foci kinetics after IR. The format is cell-based, Human. The conditions noted are these: JIB-04 25 nM 4 h, 10 Gy. Here is the method:
NSCLCs were seeded onto Lab-Tek II Chamber Slides (Thermo Fisher) and 24 hours later pretreated with JIB-04 or DMSO for 4 h. Then cells were exposed to a total dose of 2 Gy (γH2AX and 53BP1) or 10 Gy (RAD-51 and DNAPKcs p-T2609) radiation. For knockdown and overexpression experiments H1299 cells were transfected using the Amaxa Nucleofector; program X-005. Specifically, 3×10^6 were transfected with siRNA duplexes targeting JMJD2A, JMJD2B, Jarid1A, Jarid1b, scrambled siRNA (250 nM final concentration) or expression vectors pCMVHA-JMJD2A, pCMVHA-JMJD2B, pCMVHA-Jarid1A, pCMVHA-Jarid1B, PC-2 for 72 hours, followed by quantification of expression or irradiation. Then, cells were fixed in 4% formaldehyde/PBS for 15 min, permeabilized with 0.5% Triton X-100 for 15 min on ice, and blocked with 5% bovine serum albumin in PBS for 1 h. The slides were incubated with an antibody against phospho-Histone γH2AX (1:1000, 3 h at room temperature), 53BP1 (1:500, 3 h at room temperature), Rad-51 (1:500, 48 hs 4° C.) or DNAPKcs p-T2609 (1:500, 48 hs 4° C.). Alexa Fluor 488-conjugated goat anti-Rabbit, […] goat anti-mouse or rhodamine red-conjugated goat anti-mouse secondaries antibodies were used (1:1000, 1 h at room temperature). […] Cells were analyzed on a Zeiss upright fluorescent microscope.

A further experiment concerns H3K9me3 at DSBs. Description: γH2AX immunoprecipitation, H3K9me3 at DSBs. The format is cell-based, Human. As to conditions: JIB-04 4 h, IR 20 Gy. Here is the method:
For Histone demethylase activity determination 10×10^6 H1299 cells were seeded in P150 plates. Next day cells were preincubated with JIB-04 for 4 h and then irradiated with 20 Gy. Media was removed from cells, washed with PBS and fixed with 3% w/v PFA, 2% w/v sucrose in PBS for 1 min. Then cells were washed, scraped into media, pelleted by centrifugation (at 500 g for 2 min) and washed with Phosphatase inhibitor 1×, 1 μM Wortmannin (WM) and protease inhibitors 1× (Sigma). Cell pellets were re-suspended in 2.5× the packed cell volume (PCV) of Nucleosome Preparation Buffer (NPB, 10 mM HEPES [pH 7.9], 10 mM KCl, 1.0 mM CaCl2, 1.5 mM MgCl2, 0.34 M sucrose, 10% glycerol, 1 mM DTT, 0.1% Triton X-100) containing Phosphatase inhibitor, 1 μM Wortmannin (WM) and protease inhibitors (Sigma) and 100 U ml-1 micrococcal nuclease (MNase) and incubated at […] for 45 min (note: WM is required to block in vitro DNA-PK/ATM activation by MNase-produced DSBs). An equal volume of Nucleosome Solubilization Buffer (NSB=Nucleosome preparation buffer+2% [v/v] NP-40, 2% [v/v] Triton X-100, 600 mM NaCl) was then added. Samples were then vortexed, sonicated briefly and centrifuged at 10,000 rpm for 10 min. […] Protein levels on samples were quantified and equal amounts of protein run on 4-12% SDS acrylamide gels. […] Quantification was done using the using ImageJ software (National Institute of Health, NIH)

Structures are written as SMILES.

On to `Clc1ccc(N/N=C(\c2ccccc2)c2ccccn2)nc1` [JIB-04], for which, in experiment [1], the “survival fraction at 2 Gy of radiation (SF2)” value is “not affecting already radiosensitive lines”. The “fold increased sensitivity vs parental” value with HCC4017 T5 is around 3 fold. For the same molecule, in the experiment with RAD51, the RAD51 foci resolution result is “impaired foci resolution” and the “RAD51 recruitment (foci formation)” value was “significantly diminished RAD51 recruitment”. Also, in the experiment with H3K9me3 at DSBs, the “H3K9me3 at sites of DNA damage marked by γH2AX” value was “No changes in H3K9me3”.
